Results as given in US20080167330A1, “Carbamoylsulphoximides as protein kinase inhibitors” (priority 2006, published 2008).

How the values were obtained:
CDK1/CycB = biological target: T1, CDK1/CycB (Homo sapiens, UniProt P06493); experiment: CDK1/CycB kinase assay; format: biochemical; settings: 0.5 μM ATP
T1 construct: GST; purchased ProQinase GmbH, Freiburg; host or cells: baculovirus-infected insect cells (Sf9)
Method: Recombinant CDK1- and CycB-GST fusion proteins, purified from baculovirus-infected insect cells (Sf9), were purchased from ProQinase GmbH, Freiburg. The histone IIIS used as kinase substrate can be purchased from Sigma.
CDK1/CycB (5 ng/μL) was incubated in the presence of various concentrations of test substances (0 μM, and within the range 0.01-100 μM) in 40 μL of assay buffer [50 mM Tris/HCl pH 8.0, 10 mM MgCl2, 0.1 mM Na ortho-vanadate, 1.0 mM dithiothreitol, 0.025% PEG 20000, 0.5 μM ATP, 10 μM histone IIIS, 0.2 μCi/measurement point ^33P-gamma ATP, 0.05% NP40, 1.25% dimethyl sulphoxide] at 22° C. for 10 min. The reaction was stopped by adding EDTA solution (250 mM, pH 8.0, 15 μl/measurement point). 15 μl of each reaction mixture were loaded onto P30 filter strips (from Wallac), and non-incorporated ^33P-ATP was removed by washing the filter strips three times in 0.5% strength phosphoric acid for 10 min each time. After the filter strips had been dried at 70° C. for 1 hour, the filter strips were covered with scintillator strips (MeltiLex™ A, from Wallac) and baked at 90° C. for 1 hour. The amount of incorporated ^33P (substrate phosphorylation) was determined by scintillation measurement in a gamma radiation counter (Wallac).
(§1) The measured data were normalized to 0% inhibition (enzyme reaction without inhibitor) and 100% inhibition (all assay components except enzyme). The IC50 values were determined by means of a 4-parameter fit using the company's own software.

[1] = system: human MCF7 breast tumour cells; experiment: MCF7 proliferation assay; format: cell-based; settings: MCF7, 96 h, 4 days incubation, crystal violet staining
Method: Cultivated human MCF7 breast tumour cells (ATCC HTB-22) were plated out in a density of 5000 cells/measurement point in 200 μl of growth medium (RPMI1640, 10% foetal calf serum, 2 mU/mL insulin, 0.1 nM oestradiol) in a 96-well multititre plate. After 24 hours, the cells from a plate (zero plate) were stained with crystal violet (see below), while the medium in the other plates was replaced by fresh culture medium (200 μl) to which the test substances had been added in various concentrations (0 μM, and in the range 0.01-30 μM; the final concentration of the solvent dimethyl sulphoxide was 0.5%). The cells were incubated in the presence of the test substances for 4 days. The cell proliferation was determined by staining the cells with crystal violet: the cells were fixed by adding 20 μl/measurement point of an 11% strength glutaraldehyde solution at room temperature for 15 min. After the fixed cells had been washed three times with water, the plates were dried at room temperature. The cells were stained by adding 100 μl/measurement point of a 0.1% strength crystal violet solution (pH adjusted to pH 3 by adding acetic acid). After the stained cells had been washed three times with water, the plates were dried at room temperature. The dye was dissolved by adding 100 μl/measurement point of a 10% strength acetic acid solution, and the extinction was determined by photometry at a wavelength of 595 nm. The percentage change in cell growth was calculated by normalizing the measurements to the extinctions of the zero point plate (=0%) and the extinction of the untreated (0 μM) cells (=100%). The IC50 values were determined by means of a 4-parameter fit using the company's own software.

CDK2/CycE = biological target: T2, CDK2/CycE (Homo sapiens, UniProt P24941); experiment: CDK2/CycE kinase assay; format: biochemical; settings: 0.5 μM ATP
T2 construct: GST; purchased ProQinase GmbH, Freiburg; host or cells: baculovirus-infected insect cells (Sf9)
Method: Recombinant CDK2- and CycE-GST fusion proteins, purified from baculovirus-infected insect cells (Sf9), were purchased from ProQinase GmbH, Freiburg. The histone IIIS used as kinase substrate was purchased from Sigma. CDK2/CycE (1.25 ng/μL) was incubated in the presence of various concentrations of test substances (0 μM, and within the range 0.01-100 μM) in 40 μL of assay buffer [50 mM Tris/HCl pH 8.0, 10 mM MgCl2, 0.1 mM Na ortho-vanadate, 1.0 mM dithiothreitol, 0.5 μM ATP, 0.2% PEG20000, 10 μM histone IIIS, 0.2 μCi/measurement point ^33P-gamma ATP, 0.05% NP40, 1.25% dimethyl sulphoxide] at 22° C. for 10 min. The reaction was stopped by adding EDTA solution (250 mM, pH 8.0, 15 μl/measurement point).
15 μl of each reaction mixture were loaded onto P30 filter strips (from Wallac), and non-incorporated ^33P-ATP was removed by washing the filter strips three times in 0.5% strength phosphoric acid for 10 min each time.
(§2) After the filter strips had been dried at 70° C. for 1 hour, the filter strips were covered with scintillator strips (MeltiLex™ A, from Wallac) and baked at 90° C. for 1 hour. The amount of incorporated ^33P (substrate phosphorylation) was determined by scintillation measurement in a gamma radiation counter (Wallac).
as §1

KDR (VEGFR2) = biological target: T3, KDR (VEGFR2) (Homo sapiens, UniProt P35968); experiment: KDR kinase assay; format: biochemical; settings: 8 μM ATP
T3 construct: GST; purchased ProQinase GmbH, Freiburg; host or cells: baculovirus-infected insect cells (Sf9)
T3 sequence (P35968 807-1356 limits assumed): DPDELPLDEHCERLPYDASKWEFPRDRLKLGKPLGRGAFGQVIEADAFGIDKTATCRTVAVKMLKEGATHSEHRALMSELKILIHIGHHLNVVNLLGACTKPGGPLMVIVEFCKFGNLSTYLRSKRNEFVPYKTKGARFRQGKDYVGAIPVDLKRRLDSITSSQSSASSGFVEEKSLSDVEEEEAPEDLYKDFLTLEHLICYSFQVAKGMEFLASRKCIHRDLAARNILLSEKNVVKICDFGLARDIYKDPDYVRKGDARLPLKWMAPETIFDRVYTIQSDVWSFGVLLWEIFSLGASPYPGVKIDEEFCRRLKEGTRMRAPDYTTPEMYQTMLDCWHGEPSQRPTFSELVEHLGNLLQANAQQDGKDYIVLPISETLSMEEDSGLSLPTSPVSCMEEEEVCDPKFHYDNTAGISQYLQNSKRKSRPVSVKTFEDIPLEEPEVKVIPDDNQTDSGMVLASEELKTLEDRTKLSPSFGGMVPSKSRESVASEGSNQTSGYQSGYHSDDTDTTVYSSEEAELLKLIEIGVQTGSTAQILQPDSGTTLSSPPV
Method: Recombinant KDR kinase-GST fusion proteins purified from baculovirus-infected insect cells (Sf9), were purchased from ProQinase GmbH, Freiburg. Poly(Glu4Tyr)n, which was used as kinase substrate, was purchased from Sigma.
KDR kinase was incubated in the presence of various concentrations of test substances (0 μM, and within the range 0.01-100 μM) in 40 μL of assay buffer [40 mM Tris/HCl pH 7.5, 10 mM MgCl2, 1 mM MnCl2, 1.0 mM dithiothreitol, 8 μM ATP, 0.025% PEG20000, 24 ng/μL poly(Glu4Tyr)n, 0.2 μCi/measurement point ^33P-gamma ATP, 1.25% dimethyl sulphoxide] at 22° C. for 10 min. The reaction was stopped by adding EDTA solution (250 mM, pH 7.5, 15 μl/measurement point). 15 μl of each reaction mixture were loaded onto P30 filter strips (from Wallac), and non-incorporated ^33P-ATP was removed by washing the filter strips three times in 0.5% strength phosphoric acid for 10 min each time.
as §2, §1

T1 sequence (P06493 whole entry): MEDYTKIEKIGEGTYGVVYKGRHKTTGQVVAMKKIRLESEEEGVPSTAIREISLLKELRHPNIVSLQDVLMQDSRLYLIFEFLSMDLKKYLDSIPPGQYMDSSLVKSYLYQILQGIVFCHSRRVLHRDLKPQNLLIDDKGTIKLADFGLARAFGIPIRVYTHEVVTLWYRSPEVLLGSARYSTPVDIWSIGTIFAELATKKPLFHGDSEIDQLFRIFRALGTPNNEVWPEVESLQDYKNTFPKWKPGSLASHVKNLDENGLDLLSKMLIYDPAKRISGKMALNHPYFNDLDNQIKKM
T1 sequence (P14635 whole entry partner): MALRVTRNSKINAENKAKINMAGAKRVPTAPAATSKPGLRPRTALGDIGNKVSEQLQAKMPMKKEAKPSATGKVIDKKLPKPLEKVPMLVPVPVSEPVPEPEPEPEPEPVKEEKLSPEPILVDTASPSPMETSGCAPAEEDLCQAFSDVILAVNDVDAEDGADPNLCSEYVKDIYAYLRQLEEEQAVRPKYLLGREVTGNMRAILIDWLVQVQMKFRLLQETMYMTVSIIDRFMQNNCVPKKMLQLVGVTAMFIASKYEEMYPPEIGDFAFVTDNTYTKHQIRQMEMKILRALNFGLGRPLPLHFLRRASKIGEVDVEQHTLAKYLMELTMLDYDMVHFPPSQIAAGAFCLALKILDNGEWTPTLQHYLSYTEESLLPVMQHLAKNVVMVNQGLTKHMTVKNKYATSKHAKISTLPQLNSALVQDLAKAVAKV

| IC50 (CDK1/CycB) [nM] | IC50 [1] [nM] | IC50 (CDK2/CycE) [nM] | IC50 (KDR (VEGFR2)) [nM] | Structure (SMILES) |
| --- | --- | --- | --- | --- |
| 24 | 400 | 9 | 170 | C[C@@H](Nc1nc(Nc2cccc(NC(=O)N=S(C)(C)=O)c2)ncc1Br)C(C)(C)O [Example 1, N-({3-[(5-Bromo-4-{[(R)-2-hydroxy-1,2-dimethylpropyl]amino}pyrimidin-2-yl)amino]phenyl}carbamoyl)-S,S-dimethylsulphoximide] |
| 21 | 500 | 10 | 230 | C[C@@H](Nc1nc(Nc2ccc(NC(=O)N=S(C)(C)=O)cc2)ncc1Br)C(C)(C)O [Example 2, N-({4-[(5-Bromo-4-{[(R)-2-hydroxy-1,2-dimethylpropyl]amino}pyrimidin-2-yl)-amino]phenyl}carbamoyl)-S,S-dimethylsulphoximide] |
| 7 | 160 | 5 | 120 | C[C@@H](O)[C@@H](C)Nc1nc(Nc2ccc(NC(=O)N=S(C)(C)=O)cc2)ncc1Br [Example 3, N-({4-[(5-Bromo-4-{[(1R,2R)-2-hydroxy-1-methylpropyl]amino}pyrimidin-2-yl)amino]phenyl}carbamoyl)-S,S-dimethylsulphoximide] |
| 5 | 140 | 5 | 160 | C[C@@H](O)[C@@H](C)Oc1nc(Nc2ccc(NC(=O)N=S(C)(C)=O)cc2)ncc1Br [Example 4, N-({4-[(5-Bromo-4-{[(1R,2R)-2-hydroxy-1-methylpropyl]oxy}pyrimidin-2-yl)amino]phenyl}carbamoyl)-S,S-dimethylsulphoximide] |
| 10 | 160 | 5 | 63 | C[C@@H](O)[C@@H](C)Nc1nc(Nc2cccc(NC(=O)N=S(C)(C)=O)c2)ncc1Br [Example 5, N-({3-[(5-Bromo-4-{[(1R,2R)-2-hydroxy-1-methylpropyl]amino}pyrimidin-2-yl)amino]phenyl}carbamoyl)-S,S-dimethylsulphoximide] |
| 7 | 150 | 7 | 130 | C[C@@H](O)[C@@H](C)Oc1nc(Nc2cccc(NC(=O)N=S(C)(C)=O)c2)ncc1Br [Example 6, N-({3-[(5-Bromo-4-{[(1R,2R)-2-hydroxy-1-methylpropyl]oxy}pyrimidin-2-yl)amino]phenyl}carbamoyl)-S,S-dimethylsulphoximide] |
| 10 | 500 | 3 | 300 | C[C@@H](O)[C@@H](C)Nc1nc(Nc2ccc(F)c(NC(=O)N=S(C)(C)=O)c2)ncc1Br [Example 7, N-({5-[(5-Bromo-4-{[(1R,2R)-2-hydroxy-1-methylpropyl]amino}pyrimidin-2-yl)amino]-2-fluorophenyl}carbamoyl)-S,S-dimethylsulphoximide] |
| 21 | 700 | 12 | 130 | Cc1ccc(Nc2ncc(Br)c(N[C@H](C)[C@@H](C)O)n2)cc1NC(=O)N=S(C)(C)=O [Example 8, N-({5-[(5-Bromo-4-{[(1R,2R)-2-hydroxy-1-methylpropyl]amino}pyrimidin-2-yl)amino]-2-methylphenyl}carbamoyl)-S,S-dimethylsulphoximide] |
| 26 | 650 | 20 | 320 | COc1ccc(Nc2ncc(Br)c(N[C@H](C)[C@@H](C)O)n2)cc1NC(=O)N=S(C)(C)=O [Example 10, N-({5-[(5-Bromo-4-{[(1R,2R)-2-hydroxy-1-methylpropyl]amino}pyrimidin-2-yl)amino]-2-methoxyphenyl}carbamoyl)-S,S-dimethylsulphoximide] |
| 46 | 990 | 19 | 96 | COc1cc(Nc2ncc(Br)c(N[C@H](C)[C@@H](C)O)n2)ccc1NC(=O)N=S(C)(C)=O [Example 11, N-({4-[(5-Bromo-4{[(1R,2R)-2-hydroxy-1-methylpropyl]amino}pyrimidin-2-yl)amino]-2-methoxyphenyl}carbamoyl)-S,S-dimethylsulphoximide] |
| 18 | 860 | 9 | 350 | C[C@@H](O)[C@@H](C)Nc1nc(Nc2ccc(Cl)c(NC(=O)N=S(C)(C)=O)c2)ncc1Br [Example 12, N-({5-[(5-Bromo-4-{[(1R,2R)-2-hydroxy-1-methylpropyl]amino}pyrimidin-2-yl)amino]-2-chlorophenyl}carbamoyl)-S,S-dimethylsulphoximide] |
| 15 | 530 | 9 | 1100 | C[C@@H](O)[C@@H](C)Nc1nc(Nc2ccc(NC(=O)N=S(C)(C)=O)cc2)ncc1C(F)(F)F [Example 15] |
| 140 | 2100 | 330 | 64 | CS(C)(=O)=NC(=O)Nc1ccc(Nc2ncc(Br)c(Nc3ccc4[nH]cnc4c3)n2)cc1 [Example 16, N-[(4-{[4-(1H-Benzimidazol-5-ylamino)-5-bromopyrimidin-2-yl]amino}phenyl)-carbamoyl]-S,S-dimethylsulphoximide] |
| 10 | 380 | 9 | 330 | C[C@@H](O)[C@@H](C)Nc1nc(Nc2cccc(C(=O)N=S(C)(C)=O)c2)ncc1Br [Example 17, N-{3-[(5-Bromo-4-{[(1R,2R)-2-hydroxy-1-methylpropyl]amino}pyrimidin-2-yl)amino]benzoyl}-S,S-dimethylsulphoximide] |
| 18 | 140 | 9 | 61 | C[C@@H](O)[C@@H](C)Nc1nc(Nc2ccc(C(=O)N=S(C)(C)=O)cc2)ncc1Br [Example 18, N-{4-[(5-Bromo-4-{[(1R,2R)-2-hydroxy-1-methylpropyl]amino}pyrimidin-2-yl)amino]benzoyl}-S,S-dimethylsulphoximide] |
| 42 | 250 | 11 | 120 | C[C@@H](Nc1nc(Nc2ccc(C(=O)N=S(C)(C)=O)cc2)ncc1Br)C(C)(C)O [Example 19, N-{4-[(5-Bromo-4-{[(R)-2-hydroxy-1,2-dimethylpropyl]amino}pyrimidin-2-yl)amino]benzoyl}S,S-dimethylsulphoximide] |
